Laboratory results reported in patent US11208387B2, “Macrocyclic broad spectrum antibiotics” (Genentech, Inc., priority 2019, dated 2021).
Converted amounts (≈) assume the structure as drawn. Read-outs that look alike come from different tables or passages of the source.

How the values were obtained:
Experiment in all cases: Serum MIC, broth micro-dilution
Type in all cases: cell-based
[1] = test system: Acinetobacter baumannii ATCC 17978; settings: Acinetobacter baumannii, ATCC17978, 50% v/v mouse serum in Mueller Hinton II cation adjusted Broth, 35° C., 22 hours
Outline: (§1)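 CLSI broth micro-dilution MIC run in 50% v/v cation-adjusted Mueller Hinton II broth plus 50% v/v mouse serum. Compounds were serially 2-fold diluted (10 concentrations) from a top concentration of 64, 4, 0.5 or 0.13 μg/mL; inoculum at final OD600 0.0005, incubated 35° C for 22 hours.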

[2] = test system: Escherichia coli strain ATCC 25922; settings: Escherichia coli, ATCC25922; 50% v/v mouse serum in Mueller Hinton II cation adjusted Broth, 35° C., 22 hours; Table 4; read-out: E. coli 25922 Serum MIC
Outline: as §1

[3] = test system: Klebsiella pneumoniae ATCC 700603; settings: Klebsiella pneumoniae, ATCC700603; 50% v/v mouse serum in Mueller Hinton II cation adjusted Broth, 35° C., 22 hours; Table 4; read-out: K pneumoniae 700603 Serum MIC
Outline: as §1

[4] = test system: Pseudomonas aeruginosa PA01; settings: Pseudomonas aeruginosa, PA01; 50% v/v mouse serum in Mueller Hinton II cation adjusted Broth, 35° C., 22 hours; Table 4; read-out: P. aeruginosa 01 Serum MIC
Outline: as §1

[5] = Table 4, read-out: A. baumanii 17978 Serum MIC
[6] = Table 5, read-out: Acinetobacter baumanii 17978 Serum MIC

SMILES	MIC [1, 5]	MIC [1, 6]	MIC [2]	MIC [3]	MIC [4]
CCC(C)(C)c1ccc(-c2nc(C)c(C(=O)N[C@@H](CNS(N)(=O)=O)C(=O)N(C)[C@@H]3C(=O)N[C@@H](C)C(=O)N[C@H](C(=O)O)Cc4ccc(OC[C@H](O)CN)c(c4)-c4cc3cc(OC[C@H](O)CN)c4O)c(N)n2)c(F)c1 [Example 33, (8S,11S,14S)-14-[[(2S)-2-[[4-amino-2-[4-(1,1-dimethyl-propyl)-2-fluoro-phenyl]-6-methyl-pyrimidine-5-carbonyl]amino]-3-(sulfamoylamino)-propanoyl]-methyl-amino]-3,17-bis[(2R)-3-amino-2-hydroxy-propoxy]-18-hydroxy-11-methyl-10,13-dioxo-9,12-diazatricyclo-[13.3.1.12,6]icosa-1(18),2(20),3,5,15(19), 16-hexaene-8-carboxylic acid]	48 µM (≈ 49.9 µg/mL)	48 µM (≈ 49.9 µg/mL)	1 µM (≈ 1.04 µg/mL)	1 µM (≈ 1.04 µg/mL)	8 µM (≈ 8.32 µg/mL)
Cc1cc(-c2ccc(C(C)(C)C)cc2F)nc(N)c1C(=O)N[C@@H](CNS(N)(=O)=O)C(=O)N(C)[C@@H]1C(=O)N[C@@H](C)C(=O)N[C@H](C(=O)O)Cc2ccc(OC[C@H](O)CN)c(c2)-c2cc1cc(OC[C@H](O)CN)c2O [Example 35, (8S,11S,14S)-14-[[(2S)-2-[[2-amino-6-(4-tert-butyl-2-fluoro-phenyl)-4-methyl-pyridine-3-carbonyl]amino]-3-(sulfamoylamino)-propanoyl]-methyl-amino]-3,17-bis[(2R)-3-amino-2-hydroxy-propoxy]-18-hydroxy-11-methyl-10,13-dioxo-9,12-diazatricyclo-[13.3.1.12,6]icosa-1(18),2(20),3,5,15(19), 16-hexaene-8-carboxylic acid]	16 µM (≈ 16.4 µg/mL)	16 µM (≈ 16.4 µg/mL)	0.5 µM (≈ 0.513 µg/mL)	0.5 µM (≈ 0.513 µg/mL)	8 µM (≈ 8.2 µg/mL)
CCCCc1ccc(-c2nc(C)c(C(=O)N[C@@H](CNS(N)(=O)=O)C(=O)N(C)[C@@H]3C(=O)N[C@@H](C)C(=O)N[C@H](C(=O)O)Cc4ccc(OC[C@H](O)CN)c(c4)-c4cc3cc(OC[C@H](O)CN)c4O)c(N)n2)cc1 [Example 36, (8S,11S,14S)-14-[[(2S)-2-[[4-amino-2-(4-butylphenyl)-6-methyl-pyrimidine-5-carbonyl]amino]-3-(sulfamoylamino)-propanoyl]-methyl-amino]-3,17-bis[(2R)-3-amino-2-hydroxy-propoxy]-18-hydroxy-11-methyl-10,13-dioxo-9,12-diazatri-cyclo[13.3.1.12,6]icosa-1(18),2(20),3,5,15(19), 16-hexaene-8-carboxylic acid]	16 µM (≈ 16.1 µg/mL)	16 µM (≈ 16.1 µg/mL)	0.75 µM (≈ 0.756 µg/mL)	1 µM (≈ 1.01 µg/mL)	16 µM (≈ 16.1 µg/mL)
Cc1nc(-c2ccc(C(C)(C)C)cc2C#N)nc(N)c1C(=O)N[C@@H](CNS(N)(=O)=O)C(=O)N(C)[C@@H]1C(=O)N[C@@H](C)C(=O)N[C@H](C(=O)O)Cc2ccc(OC[C@H](O)CN)c(c2)-c2cc1cc(OC[C@H](O)CN)c2O [Example 39, (8S,11S,14S)-14-[[(2S)-2-[[4-amino-2-(4-tert-butyl-2-cyano-phenyl)-6-methyl-pyrimidine-5-carbonyl]amino]-3-(sulfamoylamino)-propanoyl]-methyl-amino]-3,17-bis[(2R)-3-amino-2-hydroxy-propoxy]-18-hydroxy-11-methyl-10,13-dioxo-9,12-diazatri-cyclo[13.3.1.12,6]icosa-1(18),2(20),3,5,15(19), 16-hexaene-8-carboxylic acid]	24 µM (≈ 24.8 µg/mL)	24 µM (≈ 24.8 µg/mL)	1.5 µM (≈ 1.55 µg/mL)	2 µM (≈ 2.07 µg/mL)	8 µM (≈ 8.27 µg/mL)
C[C@@H]1NC(=O)[C@@H](N(C)C(=O)[C@H](CNS(N)(=O)=O)NC(=O)c2c(Cl)cc(-c3ccc(C(C)(C)C)cc3)nc2N)c2cc(OC[C@H](O)CN)c(O)c(c2)-c2cc(ccc2OC[C@H](O)CN)C[C@@H](C(=O)O)NC1=O [Example 40, (8S,11S,14S)-14-[[(2S)-2-[[2-amino-6-(4-tert-butylphenyl)-4-chloro-pyridine-3-carbonyl]amino]-3-(sulfamoylamino)-propanoyl]-methyl-amino]-3,17-bis[(2R)-3-amino-2-hydroxy-propoxy]-18-hydroxy-11-methyl-10,13-dioxo-9,12-diazatri-cyclo[13.3.1.12,6]icosa-1(18),2(20),3,5,15(19), 16-hexaene-8-carboxylic acid]	16 µM (≈ 16.4 µg/mL)	16 µM (≈ 16.4 µg/mL)	0.75 µM (≈ 0.771 µg/mL)	0.5 µM (≈ 0.514 µg/mL)	8 µM (≈ 8.22 µg/mL)
Cc1nc(-c2ccc(C3CCC3)cc2)nc(N)c1C(=O)N[C@@H](CNS(N)(=O)=O)C(=O)N(C)[C@@H]1C(=O)N[C@@H](C)C(=O)N[C@H](C(=O)O)Cc2ccc(OC[C@H](O)CN)c(c2)-c2cc1cc(OC[C@H](O)CN)c2O [Example 41, (8S,11S,14S)-14-[[(2S)-2-[[4-amino-2-(4-cyclobutylphenyl)-6-methyl-pyrimidine-5-carbonyl]amino]-3-(sulfamoylamino)-propanoyl]-methyl-amino]-3,17-bis[(2R)-3-amino-2-hydroxy-propoxy]-18-hydroxy-11-methyl-10,13-dioxo-9,12-diazatri-cyclo[13.3.1.12,6]icosa-1(18),2(20),3,5,15(19), 16-hexaene-8-carboxylic acid]	16 µM (≈ 16.1 µg/mL)	16 µM (≈ 16.1 µg/mL)	1 µM (≈ 1.01 µg/mL)	1 µM (≈ 1.01 µg/mL)	16 µM (≈ 16.1 µg/mL)

The remaining lines, values ahead:

MIC [1, 5]	MIC [1, 6]	MIC [2]	MIC [3]	MIC [4]	SMILES
16 µM (≈ 16.1 µg/mL)	16 µM (≈ 16.1 µg/mL)	0.5 µM (≈ 0.503 µg/mL)	0.75 µM (≈ 0.755 µg/mL)	12 µM (≈ 12.1 µg/mL)	Cc1nc(-c2ccc(CC3CC3)cc2)nc(N)c1C(=O)N[C@@H](CNS(N)(=O)=O)C(=O)N(C)[C@@H]1C(=O)N[C@@H](C)C(=O)N[C@H](C(=O)O)Cc2ccc(OC[C@H](O)CN)c(c2)-c2cc1cc(OC[C@H](O)CN)c2O [Example 34, (8S,11S,14S)-14-[[(2S)-2-[[4-amino-2-[4-(cyclopropyl-methyl)phenyl]-6-methyl-pyrimidine-5-carbonyl]amino]-3-(sulfamoylamino)-propanoyl]-methyl-amino]-3,17-bis[(2R)-3-amino-2-hydroxy-propoxy]-18-hydroxy-11-methyl-10,13-dioxo-9,12-diazatricyclo-[13.3.1.12,6]icosa-1(18),2(20),3,5,15(19), 16-hexaene-8-carboxylic acid]
8 µM (≈ 8.22 µg/mL)	8 µM (≈ 8.22 µg/mL)	0.5 µM (≈ 0.514 µg/mL)	0.5 µM (≈ 0.514 µg/mL)	4 µM (≈ 4.11 µg/mL)	C[C@@H]1NC(=O)[C@@H](N(C)C(=O)[C@H](CNS(N)(=O)=O)NC(=O)c2c(N)cc(-c3ccc(C(C)(C)C)cc3)nc2Cl)c2cc(OC[C@H](O)CN)c(O)c(c2)-c2cc(ccc2OC[C@H](O)CN)C[C@@H](C(=O)O)NC1=O [Example 37, (8S,11S,14S)-14-[[(2S)-2-[[4-amino-6-(4-tert-butylphenyl)-2-chloro-pyridine-3-carbonyl]amino]-3-(sulfamoylamino)-propanoyl]-methyl-amino]-3,17-bis[(2R)-3-amino-2-hydroxy-propoxy]-18-hydroxy-11-methyl-10,13-dioxo-9,12-diazatri-cyclo[13.3.1.12,6]icosa-1(18),2(20),3,5,15(19), 16-hexaene-8-carboxylic acid]
8 µM (≈ 8.18 µg/mL)	8 µM (≈ 8.18 µg/mL)	0.5 µM (≈ 0.511 µg/mL)	0.75 µM (≈ 0.767 µg/mL)	4 µM (≈ 4.09 µg/mL)	Cc1nc(-c2ccc(CC(C)(C)C)cc2)nc(N)c1C(=O)N[C@@H](CNS(N)(=O)=O)C(=O)N(C)[C@@H]1C(=O)N[C@@H](C)C(=O)N[C@H](C(=O)O)Cc2ccc(OC[C@H](O)CN)c(c2)-c2cc1cc(OC[C@H](O)CN)c2O [Example 42, (8S,11S,14S)-14-[[(2S)-2-[[4-amino-2-[4-(2,2-dimethyl-propyl)phenyl]-6-methyl-pyrimidine-5-carbonyl]amino]-3-(sulfamoylamino)-propanoyl]-methyl-amino]-3,17-bis[(2R)-3-amino-2-hydroxy-propoxy]-18-hydroxy-11-methyl-10,13-dioxo-9,12-diazatri-cyclo[13.3.1.12,6]icosa-1(18),2(20),3,5,15(19), 16-hexaene-8-carboxylic acid]
8 µM (≈ 8.18 µg/mL)	8 µM (≈ 8.18 µg/mL)	0.5 µM (≈ 0.511 µg/mL)	0.5 µM (≈ 0.511 µg/mL)	3 µM (≈ 3.07 µg/mL)	CCC(C)(C)c1ccc(-c2nc(C)c(C(=O)N[C@@H](CNS(N)(=O)=O)C(=O)N(C)[C@@H]3C(=O)N[C@@H](C)C(=O)N[C@H](C(=O)O)Cc4ccc(OC[C@H](O)CN)c(c4)-c4cc3cc(OC[C@H](O)CN)c4O)c(N)n2)cc1 [Example 45, (8S,11S,14S)-14-[[(2S)-2-[[4-amino-2-[4-(1,1-dimethyl-propyl)phenyl]-6-methyl-pyrimidine-5-carbonyl]amino]-3-(sulfamoylamino)-propanoyl]-methyl-amino]-3,17-bis[(2R)-3-amino-2-hydroxy-propoxy]-18-hydroxy-11-methyl-10,13-dioxo-9,12-diazatri-cyclo[13.3.1.12,6]icosa-1(18),2(20),3,5,15(19), 16-hexaene-8-carboxylic acid]
